The structures appear in SMILES notation. A value given as a limit tells only on which side of the number the result lay.

Experiment [1] addresses Adenosine receptor A2a (Homo sapiens, UniProt P29274).
The target in experiment [2] is T1, Alpha-1A adrenergic receptor (Homo sapiens, UniProt P35348).
T1 sequence (P35348 whole entry): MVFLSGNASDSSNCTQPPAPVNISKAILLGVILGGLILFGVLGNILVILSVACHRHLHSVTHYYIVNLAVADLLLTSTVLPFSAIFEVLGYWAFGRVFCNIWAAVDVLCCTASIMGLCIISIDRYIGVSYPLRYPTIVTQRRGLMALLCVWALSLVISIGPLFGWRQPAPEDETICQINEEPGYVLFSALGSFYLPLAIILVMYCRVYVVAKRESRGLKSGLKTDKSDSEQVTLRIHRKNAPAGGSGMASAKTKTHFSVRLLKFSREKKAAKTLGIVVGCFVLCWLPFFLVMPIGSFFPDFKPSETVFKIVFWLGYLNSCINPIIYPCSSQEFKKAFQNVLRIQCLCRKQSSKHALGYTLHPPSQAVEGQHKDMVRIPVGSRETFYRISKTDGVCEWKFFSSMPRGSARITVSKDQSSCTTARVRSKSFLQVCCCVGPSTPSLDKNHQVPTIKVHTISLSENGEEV
The experiment is classed as functional, cell-based.

Experiment [3] has as its target T2, Beta-2 adrenergic receptor (Homo sapiens, UniProt P07550).
Experiment [4] concerns the target Cannabinoid receptor 1 (Homo sapiens, UniProt P21554). In kind it is functional, cell-based.
In experiment [5] the target is 3',5'-cyclic-AMP phosphodiesterase 4D (Homo sapiens, UniProt Q08499). The experiment is classed as functional.
Experiment [6] concerns the target T3, Progesterone receptor (Homo sapiens, UniProt P06401).
T3 sequence (P06401 whole entry): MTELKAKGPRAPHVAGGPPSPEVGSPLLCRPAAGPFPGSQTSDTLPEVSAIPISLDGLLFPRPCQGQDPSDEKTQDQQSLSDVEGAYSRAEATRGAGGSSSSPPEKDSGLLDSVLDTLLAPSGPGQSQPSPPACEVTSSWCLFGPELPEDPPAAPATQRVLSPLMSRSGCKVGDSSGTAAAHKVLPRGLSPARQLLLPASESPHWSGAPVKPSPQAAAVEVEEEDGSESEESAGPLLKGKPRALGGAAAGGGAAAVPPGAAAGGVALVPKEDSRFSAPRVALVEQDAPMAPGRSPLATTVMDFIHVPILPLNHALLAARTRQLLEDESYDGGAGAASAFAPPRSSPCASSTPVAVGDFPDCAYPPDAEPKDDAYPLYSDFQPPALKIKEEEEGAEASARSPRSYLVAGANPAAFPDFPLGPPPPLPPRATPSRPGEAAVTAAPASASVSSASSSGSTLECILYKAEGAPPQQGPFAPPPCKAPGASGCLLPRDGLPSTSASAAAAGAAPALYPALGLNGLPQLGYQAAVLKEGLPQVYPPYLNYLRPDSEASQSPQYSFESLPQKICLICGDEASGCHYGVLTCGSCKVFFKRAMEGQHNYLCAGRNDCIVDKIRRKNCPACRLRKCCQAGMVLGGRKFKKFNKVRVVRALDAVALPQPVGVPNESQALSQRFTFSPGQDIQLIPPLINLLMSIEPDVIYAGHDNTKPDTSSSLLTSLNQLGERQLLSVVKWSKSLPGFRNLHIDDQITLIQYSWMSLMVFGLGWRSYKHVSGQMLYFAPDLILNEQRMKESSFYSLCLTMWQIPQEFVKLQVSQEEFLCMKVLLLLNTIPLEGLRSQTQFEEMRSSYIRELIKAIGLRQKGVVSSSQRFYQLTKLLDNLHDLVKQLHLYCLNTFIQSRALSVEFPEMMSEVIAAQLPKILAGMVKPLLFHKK
In kind it is functional.

The target in experiment [7] is Sodium-dependent dopamine transporter (Homo sapiens, UniProt Q01959).
The target of experiment [8] is Sodium-dependent noradrenaline transporter (Homo sapiens, UniProt P23975).
In experiment [9] the target is T4, Amine oxidase [flavin-containing] A (Homo sapiens, UniProt P21397).
T4 sequence (P21397 whole entry): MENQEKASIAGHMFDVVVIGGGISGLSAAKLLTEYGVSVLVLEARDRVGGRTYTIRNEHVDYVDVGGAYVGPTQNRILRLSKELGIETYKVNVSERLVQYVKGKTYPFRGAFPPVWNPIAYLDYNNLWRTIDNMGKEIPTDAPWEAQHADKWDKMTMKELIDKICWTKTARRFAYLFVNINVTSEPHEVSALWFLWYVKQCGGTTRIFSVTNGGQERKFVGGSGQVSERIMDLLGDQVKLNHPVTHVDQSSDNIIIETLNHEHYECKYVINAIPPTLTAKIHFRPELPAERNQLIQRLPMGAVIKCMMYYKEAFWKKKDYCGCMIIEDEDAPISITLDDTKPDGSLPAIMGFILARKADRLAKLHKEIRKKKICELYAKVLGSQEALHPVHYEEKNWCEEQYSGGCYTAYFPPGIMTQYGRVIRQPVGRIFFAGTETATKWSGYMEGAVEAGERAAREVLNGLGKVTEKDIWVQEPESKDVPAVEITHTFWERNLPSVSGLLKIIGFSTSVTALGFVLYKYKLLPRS
The experiment is classed as functional.

The target of experiment [10] is cGMP-inhibited 3',5'-cyclic phosphodiesterase 3A (Homo sapiens, UniProt Q14432). In kind it is functional.
Experiment [11] has as its target Histamine H3 receptor (Homo sapiens, UniProt Q9Y5N1).
For experiment [12], the target named is T2, Beta-2 adrenergic receptor. The experiment is classed as functional, cell-based.
Experiment [13] addresses Mu-type opioid receptor (Homo sapiens, UniProt P35372).
Experiment [14] deals with Vascular endothelial growth factor receptor 2 (Homo sapiens, UniProt P35968). The experiment is classed as functional.
Further: assay procedure not described here.

Mu-type opioid receptor, sequence (P35372 whole entry): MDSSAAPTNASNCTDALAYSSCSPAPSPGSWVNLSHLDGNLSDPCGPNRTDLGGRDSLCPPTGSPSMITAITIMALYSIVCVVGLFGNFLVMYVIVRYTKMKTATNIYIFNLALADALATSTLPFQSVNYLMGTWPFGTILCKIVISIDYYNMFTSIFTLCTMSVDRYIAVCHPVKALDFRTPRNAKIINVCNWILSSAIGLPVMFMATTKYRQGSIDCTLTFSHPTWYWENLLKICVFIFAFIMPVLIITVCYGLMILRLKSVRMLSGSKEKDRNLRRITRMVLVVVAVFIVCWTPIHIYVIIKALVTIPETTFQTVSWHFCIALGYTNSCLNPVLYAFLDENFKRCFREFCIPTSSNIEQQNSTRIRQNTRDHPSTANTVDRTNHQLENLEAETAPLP
T2 sequence (P07550 whole entry): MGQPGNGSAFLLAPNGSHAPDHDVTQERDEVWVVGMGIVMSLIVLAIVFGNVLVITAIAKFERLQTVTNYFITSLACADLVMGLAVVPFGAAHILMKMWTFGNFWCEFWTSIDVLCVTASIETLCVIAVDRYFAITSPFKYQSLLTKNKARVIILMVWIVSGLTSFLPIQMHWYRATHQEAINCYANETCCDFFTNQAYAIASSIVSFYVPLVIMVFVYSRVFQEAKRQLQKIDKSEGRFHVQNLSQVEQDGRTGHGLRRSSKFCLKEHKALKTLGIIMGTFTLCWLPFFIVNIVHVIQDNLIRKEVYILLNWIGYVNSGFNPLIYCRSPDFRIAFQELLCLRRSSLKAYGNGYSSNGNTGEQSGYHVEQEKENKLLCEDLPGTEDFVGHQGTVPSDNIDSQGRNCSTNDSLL
Sodium-dependent dopamine transporter, sequence (Q01959 whole entry): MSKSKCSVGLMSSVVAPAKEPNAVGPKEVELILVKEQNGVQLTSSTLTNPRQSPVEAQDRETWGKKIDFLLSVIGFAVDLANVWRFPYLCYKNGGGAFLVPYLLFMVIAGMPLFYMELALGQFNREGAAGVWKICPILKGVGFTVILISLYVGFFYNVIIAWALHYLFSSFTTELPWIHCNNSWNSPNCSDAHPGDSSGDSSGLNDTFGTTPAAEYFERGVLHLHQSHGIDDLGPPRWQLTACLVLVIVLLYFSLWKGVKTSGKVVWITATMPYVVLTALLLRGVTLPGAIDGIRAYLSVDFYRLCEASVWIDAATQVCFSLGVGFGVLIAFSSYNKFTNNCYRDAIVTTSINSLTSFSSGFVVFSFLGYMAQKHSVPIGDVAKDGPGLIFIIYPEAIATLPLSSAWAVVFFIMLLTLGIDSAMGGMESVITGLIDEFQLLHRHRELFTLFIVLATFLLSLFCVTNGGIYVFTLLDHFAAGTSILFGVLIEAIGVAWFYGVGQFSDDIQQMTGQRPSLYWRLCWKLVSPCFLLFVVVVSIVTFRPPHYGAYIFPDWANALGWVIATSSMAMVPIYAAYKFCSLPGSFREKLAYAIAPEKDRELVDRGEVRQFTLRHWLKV
Sodium-dependent noradrenaline transporter, sequence (P23975 whole entry): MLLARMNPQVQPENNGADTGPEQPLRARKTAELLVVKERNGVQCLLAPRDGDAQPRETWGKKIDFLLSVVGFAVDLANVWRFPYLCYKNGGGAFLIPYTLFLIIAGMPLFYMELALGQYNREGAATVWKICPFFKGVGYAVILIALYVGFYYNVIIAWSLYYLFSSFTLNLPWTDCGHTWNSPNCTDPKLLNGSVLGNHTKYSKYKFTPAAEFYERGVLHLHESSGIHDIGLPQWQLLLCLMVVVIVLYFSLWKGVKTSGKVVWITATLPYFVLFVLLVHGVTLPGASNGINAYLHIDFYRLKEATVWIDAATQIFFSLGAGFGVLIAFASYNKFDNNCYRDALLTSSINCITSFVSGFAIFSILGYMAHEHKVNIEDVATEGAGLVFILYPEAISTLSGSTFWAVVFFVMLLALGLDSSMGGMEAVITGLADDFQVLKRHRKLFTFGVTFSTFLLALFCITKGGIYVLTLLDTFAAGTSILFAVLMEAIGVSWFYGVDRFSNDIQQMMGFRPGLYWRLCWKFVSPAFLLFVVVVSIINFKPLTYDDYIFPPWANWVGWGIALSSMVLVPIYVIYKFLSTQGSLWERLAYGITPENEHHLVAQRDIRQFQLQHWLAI
cGMP-inhibited 3',5'-cyclic phosphodiesterase 3A, sequence (Q14432 whole entry): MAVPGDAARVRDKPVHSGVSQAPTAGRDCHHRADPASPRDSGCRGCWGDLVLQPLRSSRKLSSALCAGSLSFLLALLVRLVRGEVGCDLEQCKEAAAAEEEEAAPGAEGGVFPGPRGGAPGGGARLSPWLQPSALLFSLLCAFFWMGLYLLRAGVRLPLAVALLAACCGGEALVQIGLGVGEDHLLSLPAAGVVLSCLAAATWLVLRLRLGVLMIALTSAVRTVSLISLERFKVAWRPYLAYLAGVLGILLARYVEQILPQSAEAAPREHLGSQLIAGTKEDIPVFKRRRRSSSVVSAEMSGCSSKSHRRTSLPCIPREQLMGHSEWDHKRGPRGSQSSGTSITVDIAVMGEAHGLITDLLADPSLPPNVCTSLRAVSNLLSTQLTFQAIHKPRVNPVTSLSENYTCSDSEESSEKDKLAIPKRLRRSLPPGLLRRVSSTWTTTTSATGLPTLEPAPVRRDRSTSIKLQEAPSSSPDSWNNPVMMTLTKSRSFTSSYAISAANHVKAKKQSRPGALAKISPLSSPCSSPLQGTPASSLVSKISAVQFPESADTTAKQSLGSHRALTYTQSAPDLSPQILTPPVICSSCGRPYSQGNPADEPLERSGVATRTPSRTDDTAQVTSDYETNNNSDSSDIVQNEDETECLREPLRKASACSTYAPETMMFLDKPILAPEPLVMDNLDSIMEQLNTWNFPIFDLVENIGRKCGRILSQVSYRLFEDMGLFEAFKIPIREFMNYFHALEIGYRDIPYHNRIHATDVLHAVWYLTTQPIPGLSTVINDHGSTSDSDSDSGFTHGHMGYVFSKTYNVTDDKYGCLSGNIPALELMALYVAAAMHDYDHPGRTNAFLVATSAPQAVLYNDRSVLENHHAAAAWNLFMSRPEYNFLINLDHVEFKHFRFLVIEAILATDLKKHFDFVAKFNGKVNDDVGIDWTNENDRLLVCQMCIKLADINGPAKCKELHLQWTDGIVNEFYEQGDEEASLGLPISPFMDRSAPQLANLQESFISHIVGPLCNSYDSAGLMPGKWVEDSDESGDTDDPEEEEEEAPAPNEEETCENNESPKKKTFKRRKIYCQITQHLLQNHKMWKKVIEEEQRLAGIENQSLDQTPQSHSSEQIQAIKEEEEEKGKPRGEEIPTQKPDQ
3',5'-cyclic-AMP phosphodiesterase 4D, sequence (Q08499 whole entry): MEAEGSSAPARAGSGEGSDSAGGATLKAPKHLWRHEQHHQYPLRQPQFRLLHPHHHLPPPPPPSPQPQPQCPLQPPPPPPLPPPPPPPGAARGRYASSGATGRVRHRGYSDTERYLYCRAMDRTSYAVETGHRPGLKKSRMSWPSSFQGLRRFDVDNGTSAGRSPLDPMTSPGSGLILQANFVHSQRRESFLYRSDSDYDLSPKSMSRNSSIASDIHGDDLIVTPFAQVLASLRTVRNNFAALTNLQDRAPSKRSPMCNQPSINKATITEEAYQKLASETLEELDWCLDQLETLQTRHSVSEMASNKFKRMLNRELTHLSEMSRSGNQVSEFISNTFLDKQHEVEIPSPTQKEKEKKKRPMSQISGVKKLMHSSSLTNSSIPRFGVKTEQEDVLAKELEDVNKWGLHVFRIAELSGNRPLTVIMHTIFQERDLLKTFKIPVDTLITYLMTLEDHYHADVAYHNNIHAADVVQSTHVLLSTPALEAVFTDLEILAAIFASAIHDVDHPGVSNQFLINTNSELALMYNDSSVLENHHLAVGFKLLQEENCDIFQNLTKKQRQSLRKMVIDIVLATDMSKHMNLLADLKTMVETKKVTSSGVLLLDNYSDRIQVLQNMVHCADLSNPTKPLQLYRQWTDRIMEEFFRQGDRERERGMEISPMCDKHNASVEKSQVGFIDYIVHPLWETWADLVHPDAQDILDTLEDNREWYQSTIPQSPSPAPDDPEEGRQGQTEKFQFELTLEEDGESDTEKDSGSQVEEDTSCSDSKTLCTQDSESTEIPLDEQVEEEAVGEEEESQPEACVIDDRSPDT
Histamine H3 receptor, sequence (Q9Y5N1 whole entry): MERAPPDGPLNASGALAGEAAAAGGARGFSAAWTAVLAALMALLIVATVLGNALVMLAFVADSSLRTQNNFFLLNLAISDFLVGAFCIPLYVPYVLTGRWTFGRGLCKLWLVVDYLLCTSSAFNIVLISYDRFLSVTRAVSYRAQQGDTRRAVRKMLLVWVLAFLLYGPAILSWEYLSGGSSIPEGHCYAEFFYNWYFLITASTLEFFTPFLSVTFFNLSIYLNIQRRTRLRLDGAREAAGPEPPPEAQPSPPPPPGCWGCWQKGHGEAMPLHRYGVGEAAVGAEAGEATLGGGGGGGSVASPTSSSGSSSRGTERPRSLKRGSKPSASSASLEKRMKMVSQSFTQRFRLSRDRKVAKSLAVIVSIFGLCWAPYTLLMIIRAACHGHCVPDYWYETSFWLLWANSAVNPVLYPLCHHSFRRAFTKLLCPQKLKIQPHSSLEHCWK
Cannabinoid receptor 1, sequence (P21554 whole entry): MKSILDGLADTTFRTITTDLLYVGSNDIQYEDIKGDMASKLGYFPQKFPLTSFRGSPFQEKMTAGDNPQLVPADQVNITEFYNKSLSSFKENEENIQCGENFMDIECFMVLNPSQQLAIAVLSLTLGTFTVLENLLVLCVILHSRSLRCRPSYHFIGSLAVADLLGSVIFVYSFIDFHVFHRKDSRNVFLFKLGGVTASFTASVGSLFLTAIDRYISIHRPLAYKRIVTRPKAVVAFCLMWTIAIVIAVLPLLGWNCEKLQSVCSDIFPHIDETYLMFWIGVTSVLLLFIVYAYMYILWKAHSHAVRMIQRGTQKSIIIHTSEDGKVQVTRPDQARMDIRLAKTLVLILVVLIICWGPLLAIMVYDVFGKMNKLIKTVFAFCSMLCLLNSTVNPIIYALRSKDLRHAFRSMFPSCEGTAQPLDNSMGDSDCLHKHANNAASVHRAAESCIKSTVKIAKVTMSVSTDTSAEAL

By AC50 is commonly meant the concentration giving half of the maximal activity seen. The low end stands for activity at low concentration, the high end for activity only at high concentration. For the compound `C[N+](C)(C)CC(=O)O` [BETAINE], the AC50 in experiment [1], in [2], in experiment [3], in experiment [4], in [5] and in experiment [6] was above 30 µM throughout. Also, the half-maximal activity concentration (AC50) in experiment [7], in experiment [8], in experiment [9], in experiment [10] and in [11] was above 30 µM throughout.
Turning to `CCCC(=O)N1CCCN(c2nc(N)c3cc(OC)c(OC)cc3n2)CC1` [BUNAZOSIN], the AC50 in experiment [1], in experiment [2], in experiment [12], in experiment [4], in experiment [5] and in experiment [6] was above 30 µM throughout. Also, the AC50 in experiment [7], in experiment [8], in [9], in experiment [10] and in [11] was above 30 µM throughout.
Turning to `CC(=O)N(CC(O)CO)c1c(I)c(C(=O)NCC(O)CO)c(I)c(C(=O)NCC(O)CO)c1I` (stereo unspecified) [IOHEXOL], the AC50 in experiment [1], in experiment [2], in experiment [3], in [4], in [5] and in experiment [7] was above 30 µM each time. Besides, the AC50 is above 30 µM in [8]; above 30 µM in [13]; above 10 µM in experiment [9]; above 30 µM in experiment [10]; above 10 µM in experiment [11].
For `CC(C(O)c1ccc(O)cc1)N1CCC(Cc2ccccc2)CC1` (stereo unspecified) [IFENPRODIL], the AC50 in [1], in experiment [2], in experiment [12], in experiment [3], in experiment [4] and in [5] was above 30 µM in each case. Further, the AC50 in experiment [6] was above 30 µM; in experiment [7] it was 1.2 µM; in experiment [8] it was 2.5 µM; in [9], above 30 µM; in experiment [10], above 30 µM; in experiment [11], above 30 µM.
Consider `CC(C)NCC1CCc2cc(CO)c([N+](=O)[O-])cc2N1` (stereo unspecified) [OXAMNIQUINE], for which the AC50 in experiment [1] was above 10 µM; in [2] it was above 30 µM; in [3] it was above 10 µM; in [4], above 30 µM; in experiment [5], above 30 µM; in experiment [6] it was above 10 µM. Also, the AC50 in experiment [7] is above 30 µM; in experiment [8], above 30 µM; in [13] it was above 30 µM; in experiment [9], above 10 µM; in [10] it was above 30 µM; in [11], above 10 µM.
Take `CN(C)[C@@H]1C(O)=C(C(N)=O)C(=O)[C@@]2(O)C(O)=C3C(=O)c4c(O)ccc(Cl)c4[C@@H](O)[C@H]3C[C@@H]12` [DEMECLOCYCLINE]: the concentration at half-maximal activity (AC50) is above 10 µM in experiment [1]; above 10 µM in experiment [3]; above 30 µM in experiment [5]; above 10 µM in experiment [7]; above 10 µM in [8]; above 30 µM in [13]. Moreover, the values for the AC50 in experiment [9] and in experiment [10] were above 10 µM and above 30 µM, respectively.
In the case of `NS(=O)(=O)c1cc(-c2nnn[nH]2)c(NCc2cccs2)cc1Cl` [AZOSEMIDE], the AC50 in experiment [1] was above 30 µM; in [2], above 30 µM; in experiment [3], above 30 µM; in experiment [4] it was above 30 µM; in experiment [5] it was 7.8 µM; in experiment [6] it was above 30 µM. Besides, the AC50 in [7] was above 30 µM; in [8], above 30 µM; in experiment [9], above 30 µM; in [10], 19 µM; in [11], above 30 µM.
Consider `CC(=O)N[C@H]1[C@H]([C@H](O)[C@H](O)CO)OC(C(=O)O)=C[C@@H]1N=C(N)N` [ZANAMIVIR], for which the AC50 in [1], in [3], in [5], in [6], in experiment [7] and in [8] was above 30 µM throughout. For the same compound, the AC50 in [13], in experiment [9], in experiment [10] and in experiment [11] was above 30 µM each time.
Turning to `N[C@@H](CSCC(=O)O)C(=O)O` [CARBOCYSTEINE], the AC50 in experiment [1] is above 30 µM; in [2] it was above 30 µM; in experiment [3], above 30 µM; in experiment [4], above 30 µM; in experiment [5], above 10 µM; in experiment [6] it was above 30 µM. The half-maximal activity concentration (AC50) in experiment [7], in experiment [8], in experiment [9], in experiment [10] and in experiment [11] was above 30 µM each time.
Take `CN(CCCN1c2ccccc2CCc2ccccc21)CC(=O)c1ccc(Cl)cc1` [LOFEPRAMINE]: the AC50 in [1] was above 30 µM; in [2], above 30 µM; in experiment [12], above 30 µM; in [3], 20 µM; in experiment [4], above 30 µM; in experiment [5] it was 28 µM. For the same compound, the AC50 in experiment [7] is 21 µM; in [8] it was 0.022 µM; in [10] it was above 30 µM; in experiment [11], above 30 µM.
`CN(C)CCCN1c2ccccc2Sc2ccccc21` [PROMAZINE]: the AC50 in experiment [1] was above 30 µM; in [2], above 30 µM; in experiment [12], above 30 µM; in experiment [3], 7.6 µM; in [4] it was above 30 µM; in experiment [5] it was above 10 µM. Besides, the concentration at half-maximal activity (AC50) in experiment [7] was above 10 µM; in experiment [13], 6.5 µM; in experiment [9], above 10 µM; in experiment [10], 15 µM; in experiment [11], above 10 µM.
In [14], `O=C1CN=C(c2ccccc2)c2c(sc3c2CCCC3)N1` [BENTAZEPAM] returned an AC50 above 30 µM.
As for `O=P(O)(O)C(O)(Cc1cccnc1)P(=O)(O)O` [RISEDRONIC ACID], the AC50 in [1], in [2], in [3], in [4], in experiment [5] and in experiment [6] was above 30 µM throughout. The AC50 in [7] is above 30 µM; in experiment [8], above 30 µM; in [13] it was above 30 µM; in experiment [9] it was above 30 µM; in experiment [10], 7.14 µM; in [11], above 30 µM.

Source of the values: ChEMBL document CHEMBL5291721, “A preclinical secondary pharmacology resource illuminates target-adverse drug reaction associations of marketed drugs” (Nat Commun, 2023).
